Earlier results in US12383538B2, “Use of mTOR inhibitors for prevention of intestinal polyp growth and cancer” (priority 2013, dated 2025).

Tested on: colorectal adenomas
Conditions: adults with FAP, 6-month trial

Cc1ccc(-c2cc(C(F)(F)F)nn2-c2ccc(S(N)(=O)=O)cc2)cc1 [celecoxib]
tolerability: well tolerated
